The text below walks through data of patent US8835464B2, “Triazole compounds that modulate HSP90 activity” (Synta Pharmaceuticals Corp., priority 2006, dated 2014).

Each structure is given as a SMILES string. Structures can show the parent of a compound that is named as a salt. Where only a bound is given, the exact number is not on record here.

The first assay has as its system Hsp90. The assay can be described thus: IC50 of compounds of the invention, Example B Method 2 (Tables 6-9). In kind it is cell-based, human. As to conditions: Table 7; Her2 degradation / inhibition of Hsp90; Method 2: MV-4-11 cells, 72 hours, Cell Counting Kit-8; read-out: IC50. For orientation: Formazan colour is commonly taken as a measure of viable cells.
On to `CC(C)C(=O)Nc1nnc(-c2cc(C(C)C)c(O)cc2O)n1-c1ccc2c(ccn2C)c1` [Compound 14a, N-(5-(2,4-dihydroxy-5-isopropylphenyl)-4-(1-methyl-1H-indol-5-yl)-4H-1,2,4-triazol-3-yl)isobutyramide], for which the half-inhibitory concentration (IC50) stood at 1.56 µM. Consider `CC(C)c1cc(-c2nnc(NC(=O)Cc3ccccc3)n2-c2ccc3c(ccn3C)c2)c(O)cc1O` [Compound 16a, N-(5-(2,4-dihydroxy-5-isopropylphenyl)-4-(1-methyl-1H-indol-5-yl)-4H-1,2,4-triazol-3-yl)-2-phenylacetamide], for which the IC50 was 1.46 µM. Still for that read-out and setting: the same measure for `CCCC(=O)Nc1nnc(-c2cc(C(C)C)c(O)cc2O)n1-c1ccc2c(ccn2C)c1` [Compound 12a, N-(5-(2,4-dihydroxy-5-isopropylphenyl)-4-(1-methyl-1H-indol-5-yl)-4H-1,2,4-triazol-3-yl)butyramide]: 1.4 µM.

Staying with this assay, now noted: Table 8; Her2 degradation / inhibition of Hsp90; Method 2: MV-4-11 cells, 72 hours, Cell Counting Kit-8; read-out: IC50.
For the molecule `CC(C)c1cc(-c2nn(COC(=O)C(N)C(C)C)c(=O)n2-c2ccc3c(ccn3C)c2)c(O)cc1O` (stereo not drawn) [Compound 12b, (3-(2,4-dihydroxy-5-isopropylphenyl)-4-(1-methyl-1H-indol-5-yl)-5-oxo-4,5-dihydro-1H-1,2,4-triazol-1-yl)methyl 2-amino-3-methylbutanoate], the half-maximal inhibitory concentration (IC50) was found to be 0.029 µM.

Consider `COCCC(=O)Oc1cc(O)c(-c2nnc(OC(=O)CCOC)n2-c2ccc3c(ccn3C)c2)cc1C(C)C` [Compound 18b, 5-hydroxy-2-isopropyl-4-(5-(3-methoxypropanoyloxy)-4-(1-methyl-1H-indol-5-yl)-4H-1,2,4-triazol-3-yl)phenyl 3-methoxypropanoate], for which the IC50 was less than 0.1 µM. In the case of `CC(C)c1cc(-c2nn(COC(=O)C(N)Cc3ccccc3)c(=O)n2-c2ccc3c(ccn3C)c2)c(O)cc1O` (stereo not drawn) [Compound 13b, (3-(2,4-dihydroxy-5-isopropylphenyl)-4-(1-methyl-1H-indol-5-yl)-5-oxo-4,5-dihydro-1H-1,2,4-triazol-1-yl)methyl 2-amino-3-phenylpropanoate], the half-inhibitory concentration (IC50) was found to be 0.027 µM.

The same assay, now with this note: Table 9; Her2 degradation / inhibition of Hsp90; Method 2: MV-4-11 cells, 72 hours, Cell Counting Kit-8; dihydrochloride; read-out: IC50 Range.
Regarding `CC(C)c1cc(-c2nnc(O)n2-c2ccc(N3CCN(C)CC3)nc2)c(O)cc1O` [Compound 9d, 4-(5-hydroxy-4-(6-(4-methylpiperazin-1-yl)pyridin-3-yl)-4H-1,2,4-triazol-3-yl)-6-isopropylbenzene-1,3-diol dihydrochloride], the IC50 is 0.22 µM.

Still in this assay, the particulars now being: Table 9; Her2 degradation / inhibition of Hsp90; Method 2: MV-4-11 cells, 72 hours, Cell Counting Kit-8; read-out: IC50 Range.
As to `CC(C)c1cc(-c2nnc(O)n2-c2cccc(S(=O)(=O)N3CCOCC3)c2)c(O)cc1O` [Compound 15d, 4-(5-hydroxy-4-(3-(morpholinosulfonyl)phenyl)-4H-1,2,4-triazol-3-yl)-6-isopropylbenzene-1,3-diol], the IC50 turned out to be 0.33 µM. Consider `CC(C)c1cc(-c2nnc(O)n2-c2cccc(S(=O)(=O)N(C)CCN(C)C)c2)c(O)cc1O` [Compound 10d, 3-(3-(2,4-dihydroxy-5-isopropylphenyl)-5-hydroxy-4H-1,2,4-triazol-4-yl)-N-(2-(dimethylamino)ethyl)-N-methylbenzenesulfonamide], for which the 50% inhibitory concentration (IC50) is more than 0.33 µM.

As to `CC(C)c1cc(-c2nnc(O)n2-c2ccc(N3CCN(C)CC3)nc2)c(O)cc1O` [Compound 8d, 4-(5-hydroxy-4-(6-(4-methylpiperazin-1-yl)pyridin-3-yl)-4H-1,2,4-triazol-3-yl)-6-isopropylbenzene-1,3-diol], the concentration for half-maximal inhibition (IC50) is 0.243 µM. The same measure, in the same setting: then `CC(C)c1cc(-c2nnc(O)n2-c2ccc(N(C)C)c(S(N)(=O)=O)c2)c(O)cc1O` [Compound 12d, 5-(3-(2,4-dihydroxy-5-isopropylphenyl)-5-hydroxy-4H-1,2,4-triazol-4-yl)-2-(dimethylamino)benzene sulfonamide], with 0.336 µM; and `COC(CN(C)c1ccc(-n2c(O)nnc2-c2cc(C(C)C)c(O)cc2O)cn1)OC` [Compound 2d, 4-(4-(6-(N-(2,2-dimethoxyethyl)-N-methylamino)pyridin-3-yl)-5-hydroxy-4H-1,2,4-triazol-3-yl)-6-isopropylbenzene-1,3-diol], with 0.107 µM.

A word on the IC50: it is the concentration needed to halve the response being measured.
